How the values were obtained:
RAJI = test: CellTiter-Blue assay, haematological cell line; assay type: cell-based; conditions: Homo sapiens, 96 h; RAJI (NHL), four days treatment
Experimental: (§1) The compounds of Examples 2 and 7 were tested against a range of human haematological cell lines using the CellTiter-Blue® assay (#G8081, Promega) according to the manufacturer's instructions. Cells were harvested from exponential phase cultures, counted and plated in 96 well flat-bottom microtiter plates at a cell density of 20,000-90,000 cells/well. After a 24 h recovery period to allow the cells to resume exponential growth, 10 μl of culture medium (four control wells/plate) or of culture medium with test compound were added. The compounds were applied in duplicates at ten concentrations and treatment continued for four days. After treatment of cells, 10 μl/well CellTiter-Blue® reagent was added. Following an incubation period of up to four hours, fluorescence (FU) was measured by using the EnVision Xcite multilabel reader (excitation λ=531 nm, emission λ=615 nm). The compounds were tested in two to four independent experiments for each cell line.

OCI-AML2 = test: CellTiter-Blue assay, haematological cell line; assay type: cell-based; conditions: Homo sapiens, 96 h; OCI-AML2 (AML), four days treatment
Experimental: as §1

U-937 = test: CellTiter-Blue assay, haematological cell line; assay type: cell-based; conditions: Homo sapiens, 96 h; U-937 (NHL), four days treatment
Experimental: as §1

KM-H2 = test: CellTiter-Blue assay, haematological cell line; assay type: cell-based; conditions: Homo sapiens, 96 h; KM-H2 (HL), four days treatment
Experimental: as §1

HL-60 = test: CellTiter-Blue assay, haematological cell line; assay type: cell-based; conditions: Homo sapiens, 96 h; HL-60 (AML), four days treatment
Experimental: as §1

MOLT-4 = test: CellTiter-Blue assay, haematological cell line; assay type: cell-based; conditions: Homo sapiens, 96 h; MOLT-4 (ALL), four days treatment
Experimental: as §1

L-363 = test: CellTiter-Blue assay, haematological cell line; assay type: cell-based; conditions: Homo sapiens, 96 h; L-363 (MM), four days treatment
Experimental: as §1

LP-1 = test: CellTiter-Blue assay, haematological cell line; assay type: cell-based; conditions: Homo sapiens, 96 h; LP-1 (MM), four days treatment
Experimental: as §1

JURL-MK1 = test: CellTiter-Blue assay, haematological cell line; assay type: cell-based; conditions: Homo sapiens, 96 h; JURL-MK1 (CML), four days treatment
Experimental: as §1

KG-1 = test: CellTiter-Blue assay, haematological cell line; assay type: cell-based; conditions: Homo sapiens, 96 h; KG-1 (AML), four days treatment
Experimental: as §1

HUT-78 = test: CellTiter-Blue assay, haematological cell line; assay type: cell-based; conditions: Homo sapiens, HuT78, 96 h; HUT-78 (NHL), four days treatment
Experimental: as §1

K-562 = test: CellTiter-Blue assay, haematological cell line; assay type: cell-based; conditions: Homo sapiens, K562, 96 h; K-562 (CML), four days treatment
Experimental: as §1

MEG-01 = test: CellTiter-Blue assay, haematological cell line; assay type: cell-based; conditions: Homo sapiens, 96 h; MEG-01 (CML), four days treatment
Experimental: as §1

IM-9 = test: CellTiter-Blue assay, haematological cell line; assay type: cell-based; conditions: Homo sapiens, 96 h; IM-9 (MM), four days treatment
Experimental: as §1

NOMO-1 = test: CellTiter-Blue assay, haematological cell line; assay type: cell-based; conditions: Homo sapiens, 96 h; NOMO-1 (AML), four days treatment
Experimental: as §1

NCI-H929 = test: CellTiter-Blue assay, haematological cell line; assay type: cell-based; conditions: Homo sapiens, 96 h; NCI-H929 (MM), four days treatment
Experimental: as §1

KCL-22 = test: CellTiter-Blue assay, haematological cell line; assay type: cell-based; conditions: Homo sapiens, 96 h; KCL-22 (CML), four days treatment
Experimental: as §1

MV4-11 = test: CellTiter-Blue assay, haematological cell line; assay type: cell-based; conditions: Homo sapiens, 96 h; MV4-11 (AML), four days treatment
Experimental: as §1

EM-2 = test: CellTiter-Blue assay, haematological cell line; assay type: cell-based; conditions: Homo sapiens, 96 h; EM-2 (CML), four days treatment
Experimental: as §1

PL-21 = test: CellTiter-Blue assay, haematological cell line; assay type: cell-based; conditions: Homo sapiens, 96 h; PL-21 (AML), four days treatment
Experimental: as §1

CCRF-CEM = test: CellTiter-Blue assay, haematological cell line; assay type: cell-based; conditions: Homo sapiens, 96 h; CCRF-CEM (ALL), four days treatment
Experimental: as §1

CCRF-CEM/VCR = test: CellTiter-Blue assay, haematological cell line; assay type: cell-based; conditions: Homo sapiens, 96 h; CCRF-CEM/VCR (ALL), four days treatment
Experimental: as §1

JURKAT = test: CellTiter-Blue assay, haematological cell line; assay type: cell-based; conditions: Homo sapiens, 96 h; JURKAT (ALL), four days treatment
Experimental: as §1

HCT-116 = test: Anti-proliferative activity, Alamar Blue assay; assay type: cell-based; conditions: Homo sapiens, 96 h exposure, read-out: HCT116 96 Hrs IC50
Experimental: The anti-proliferative activities of compounds of the invention are determined by measuring the ability of the compounds to inhibit the growth of the colorectal cancer derived cell-line HCT-116. Inhibition of cell growth is measured using the Alamar Blue assay (Nociari et al., Journal of Immunological Methods (1998) 213, 157-167). The method is based on the ability of viable cells to reduce resazurin to its fluorescent product resorufin. For each proliferation assay cells are plated onto 96 well plates and allowed to recover for 16 hours prior to the addition of inhibitor compounds for a further 96 hours. At the end of the incubation period 10% (v/v) Alamar Blue is added and incubated for a further 6 hours prior to determination of fluorescent product at Excitation 535 nm and Emission 590 nm. All cell lines are obtained from ECACC (European Collection of cell Cultures).
The activities of the compounds of the invention against the human colorectal cancer cell line HCT-116 are shown the in the table below. The column headed HCT-116 96 Hrs refers to the concentration of compound required to reduce the proliferation of HCT-116 cells by 50% following a 96 h period of exposure. The column headed [Polyploidy] refers to the lowest concentration of compound required to produce a distinct polyploid phenotype, believed to be due to Aurora B inhibition.

[1] = Caco-2 permeability assay; assay type: in vitro ADME; conditions: human; for Papp A→B: A2B, read-out: Caco2 A2B Papp; for Papp B→A: B2A, read-out: Caco2 B2A Papp
Experimental: The ability of a compound to be taken up and retained by a cell can be measured by carrying out permeability studies using Caco-2 cells.
Compounds of the present invention were therefore tested in a standard Caco-2 assay and the rate of flow of the compounds into and out of the cells was determined.
In the table, the column headed “Caco-2 A2B” indicates the rate at which compound flows into the cells and the column Caco-2 B2A indicates the rate at which compound flows out of the cells. The “Efflux Ratio” is the ratio of Caco-2 B2A:Caco-2 A2B.

Row | SMILES | IC50 (RAJI) [nM] | IC50 (OCI-AML2) [nM] | IC50 (U-937) [nM] | IC50 (KM-H2) [nM] | IC50 (HL-60) [nM] | IC50 (MOLT-4) [nM] | IC50 (L-363) [nM] | IC50 (LP-1) [nM] | IC50 (JURL-MK1) [nM] | IC50 (KG-1) [nM] | IC50 (HUT-78) [nM] | IC50 (K-562) [nM] | IC50 (MEG-01) [nM] | IC50 (IM-9) [nM] | IC50 (NOMO-1) [nM] | IC50 (NCI-H929) [nM] | IC50 (KCL-22) [nM] | IC50 (MV4-11) [nM] | IC50 (EM-2) [nM] | IC50 (PL-21) [nM] | also measured
1 | Cc1ccc2[nH]ccc2c1-c1nc(C(N)=O)c(-c2ccc(N3CCNC(C)(C)C3)cc2)o1 [Example 2, 2-(5-Methyl-1H-Indol-4-yl)-5-[4-(3,3-dimethyl-piperazin-1-yl)-phenyl]-oxazole-4-carboxylic acid amide] | 2850 | 103 | 94 | 189 | 64 | 48 | 121 | 1070 | 141 | 76 | 138 | 326 | 633 | 70 | 95 | 852 | 417 | 9 | 604 | 99 | IC50 (CCRF-CEM): 50 nM; IC50 (CCRF-CEM/VCR): 458 nM; IC50 (JURKAT): 91 nM; IC50 (HCT-116): 74 nM; Papp A→B [1]: 1.98 ×10⁻⁶ cm/s; Papp B→A [1]: 9.91 ×10⁻⁶ cm/s; efflux ratio ([1]; B2A:A2B, read-out: Caco2 Efflux ratio): 4.99
2 | Cc1cc(F)c2[nH]ccc2c1-c1nc(C(N)=O)c(-c2ccc(N3CCNC(C)(C)C3)cc2)o1 [Example 7, 2-(5-Methyl-7-Fluoro-1H-Indol-4-yl)-5-[4-(3,3-dimethyl-piperazin-1-yl)-phenyl]-oxazole-4-carboxylic acid amide] | 1800 | 91 | 155 | 137 | 52 | 45 | 104 | 1010 | 98 | 137 | 123 | 219 | 468 | 70 | 61 | 1400 | 366 | 9 | 493 | 91 | IC50 (CCRF-CEM): 46 nM; IC50 (CCRF-CEM/VCR): 239 nM; IC50 (JURKAT): 93 nM; IC50 (HCT-116): 120 nM; Papp A→B [1]: 0.683 ×10⁻⁶ cm/s; Papp B→A [1]: 2.26 ×10⁻⁶ cm/s

Reference: patent US9133180B2, “Aurora and FLT3 kinases modulators” (SAREUM LIMITED, priority 2012, dated 2015)
